Measured values published in patent US11938137B2, “Lipid prodrugs of mycophenolic acid and uses thereof” (PureTech LYT, Inc., priority 2017, dated 2024).

What was measured:
[1] = In vitro release of MPA from prodrugs in plasma supplemented with lipoprotein lipase (LPL); type: in vitro ADME, rat; conditions: for Percentage MPA release at 60 min in LPL supplemented rat plasma: n = 3 unless specified otherwise; for monoglyceride (MG) peak: after 180 min, rat plasma supplemented with LPL
Procedure: The percentage of MPA released at 60 minutes in LPL-supplemented rat plasma was also determined for selected compounds. […] The designation “**” indicates a release % of >25% to 50%. The designation “***” indicates a release % of >50% to 75%. The designation “****” indicates a release % of >75%.
In order to probe the release of free drug from TG prodrugs in the systemic circulation, prodrugs were incubated with plasma (rat, mouse, dog, pig or human) supplemented with lipoprotein lipase (LPL, 200 IU/ml). LPL is a key enzyme required for the hydrolysis of lipoprotein associated TG in the systemic circulation and is therefore expected to be a key contributor to lipolysis of the re-esterified drug-TG construct in plasma, largely via liberation of fatty acids in the sn-1 and the sn-3 position of the TG-mimetic, prior to drug release from the 2′ position via esterase hydrolysis. LPL is […] is tethered to the luminal surface of vascular endothelial cells under physiological conditions. In the current in vitro studies, plasma was therefore supplemented with LPL to better reflect the in vivo situation. To start hydrolysis, 10 μl of LPL solution (10,000 IU/ml) was added to a mixture of 10 μl of prodrug solution (1 mg/ml dissolved in acetonitrile) and 500 μl of blank plasma. The mixture was incubated at 37° C. Samples (20 μl) of the incubation solution were taken at 0, 5, 15, 30, 60, 90, 120 and 180 minutes post-incubation and added to 180 μl of MeCN to stop lipolysis. The mixture was vortexed and centrifuged at 4500×g for 5 minutes to precipitate proteins prior to analysis. The supernatant was analyzed by HPLC-MS/MS for the potential products (MG form, acid form, and free drug) of prodrug hydrolysis.

[2] = Lymphatic transport assay in mesenteric lymph-duct cannulated rats; type: in vivo, rat; conditions: total MPA related compound, intraduodenal infusion, anesthetised mesenteric lymph-duct cannulated rats; class symbols
Procedure: In order to assess the lymphatic transport of disclosed lipid prodrugs in rats, the mesenteric lymph ducts of the rats used in this study were cannulated to allow continual collection of mesenteric lymph. Lipid formulations containing the compound of interest were then administered to the animals, lymph was collected, and drug concentrations in the lymph samples were quantified.
Lipid-based formulations of the compounds of the invention or control compounds were prepared as previously described (Trevaskis, N. L. et al., Pharmaceutical Research, 2005, 22(11), 1863-1870, WO 2016/023082, and WO 2017/041139, hereby incorporated by reference.
In brief, either 1 or 2 mg of test prodrug, 40 mg oleic acid and 25 mg Tween 80 were mixed in a glass vial and incubated at 37° C. for 12-18 h to equilibrate. An aqueous phase consisting of 5.6 ml phosphate buffered saline (PBS, pH 7.4) was subsequently added to the lipid phase (MPA was dissolved in PBS for the preparation of MPA containing formulations) and the formulation emulsified by ultrasonication with a Misonix XL 2020 ultrasonic processor (Misonix, Farmingdale, NY, USA) equipped with a 3.2-mm microprobe tip running at 30% of the maximal amplitude of 240 μm and a frequency of 20 kHz for 2 min at room temperature. Doses for administering to more than one animal can be prepared in one batch by suitably increasing the quantities given above. Drug/prodrug concentrations in all formulations were verified using HPLC-MS.
Male Sprague-Dawley (SD) rats were selected for the lymphatic transport studies. Rats (typically 240-320 g) were maintained on a standard diet and fasted overnight with free access to water prior to experiments.
Anesthetized rats were placed on a heated pad at 37° C. and cannulas inserted into the duodenum (for formulation administration and rehydration), mesenteric lymph duct (for lymph collection), and carotid artery (in cases where blood collection was conducted). Post-surgery, rats were re-hydrated for 0.5 h via intraduodenal infusion of normal saline at 2.8 mL/h. The lipid formulations were infused into the duodenum at 2.8 mL/h for 2 h after which, normal saline was infused at 2.8 mL/h for the remainder of the experiment. Lymph was continuously collected for up to 8 h into pre-weighed Eppendorf tubes containing 10 μL of 1,000 IU/mL heparin. The collection tubes were changed hourly and lymph flow was measured gravimetrically. Aliquots of hourly lymph samples were stored at −20° C. prior to assay.
Drug concentration in lymph is expressed as total drug and includes free drug and drug associated with different glycerides. Lymph samples are first treated with a lipase or other appropriate conditions to liberate free active agent prior to measurement of active agent levels in the lymph. Treatment with a lipase or other hydrolysis conditions liberates free active agent from any corresponding re-esterified glycerides. Porcine pancreatic lipase is appropriate for this purpose. Alternatively, hydrolysis with 0.5 M NaOH may be used. For MPA “phenol” prodrugs (i.e. prodrugs linked to the triglyceride at the aromatic —OH group of MPA), hydrolysis was performed with 0.5 M NaOH except for the lymph samples collected from 3 rats in the group of compound I-20 (MPA-O-C12α′βMe-TG), which were hydrolyzed by porcine pancreatic lipase.
Transport of compounds into lymph during each hourly collection period was calculated from the product of the volume of lymph collected and the measured concentrations in lymph. For fluorescently-labelled compounds such as a BDP-conjugate, the concentrations of total compound may be measured by fluorescence spectroscopy without hydrolysis.
The results of the lymphatic transport assays are summarized in Table 2, below, and FIGS. 1-19. Table 2 summarizes lymphatic transport of total MPA related compound (% of administered dose) following intraduodenal infusion to anaesthetised, mesenteric lymph-duct cannulated rats. […]

Structure (SMILES)	Percentage MPA release at 60 min in LPL supplemented rat plasma [1]	monoglyceride (MG) peak [1]	Cumulative lymphatic transport % dose (Mean ± SD, or Range if n = 2) [2]
CCCCCCCCCCCCCCCC(=O)OCC(COC(=O)CCCCCCCCCCCCCCC)OC(=O)CC(C)CCCCCCCC(C)C(=O)Oc1c(C/C=C(\C)CCC(=O)OC)c(OC)c(C)c2c1C(=O)OC2 (centres unmarked) [I-20]	*** (a release % of >50% to 75%)	almost completely disappeared	A (greater than 10% (>10%))
CCCCCCCCCCCCCCCC(=O)OCC(COC(=O)CCCCCCCCCCCCCCC)OC(=O)CC(C)CCCCCCCC(C)C(=O)OCCCCC(=O)Oc1c(C/C=C(\C)CCC(=O)OC)c(OC)c(C)c2c1C(=O)OC2 (centres unmarked) [I-22, (E)-12-(1,3-Bis(palmitoyloxy)propan-2-yl) 1-(5-((6-methoxy-5-(6-methoxy-3-methyl-6-oxohex-2-en-1-yl)-7-methyl-3-oxo-1,3-dihydroisobenzofuran-4-yl)oxy)-5-oxopentyl) 2,10-dimethyldodecanedioate]	*** (a release % of >50% to 75%)	almost completely disappeared	A (greater than 10% (>10%))
CCCCCCCCCCCCCCCC(=O)OCC(COC(=O)CCCCCCCCCCCCCCC)OC(=O)C(C)CCCCCCCC(=O)Oc1c(C/C=C(\C)CCC(=O)OC)c(OC)c(C)c2c1C(=O)OC2 (centres unmarked) [I-45]	–	–	A (greater than 10% (>10%))
CCCCCCCCCCCCCCCC(=O)OCC(COC(=O)CCCCCCCCCCCCCCC)OC(=O)CCCCCCCCCOC(=O)CC/C(C)=C/Cc1c(O)c2c(c(C)c1OC)COC2=O [I-46]	–	–	A (greater than 10% (>10%))
CCCCCCCCCCCCCCCC(=O)OCC(COC(=O)CCCCCCCCCCCCCCC)OC(=O)CCCCCCCCCCC(=O)Oc1cc(C)cc(C)c1C(C)(C)CC(=O)Oc1c(C/C=C(\C)CCC(=O)OC)c(OC)c(C)c2c1C(=O)OC2 [I-47]	–	–	B (between 1% and 10% (1%-10%))
CCCCCCCCCCCCCCCC(=O)OCC(COC(=O)CCCCCCCCCCCCCCC)OC(=O)CCCCCCCCCC(=O)Oc1c(C/C=C(\C)CCC(=O)OC)c(OC)c(C)c2c1C(=O)OC2 [I-48]	–	–	A (greater than 10% (>10%))
CCCCCCCCCCCCCCCC(=O)OCC(COC(=O)CCCCCCCCCCCCCCC)OC(=O)CC(C)CCCCCCCOC(=O)CC/C(C)=C/Cc1c(O)c2c(c(C)c1OC)COC2=O (centres unmarked) [I-50, (E)-2-((10-((6-(4-hydroxy-6-methoxy-7-methyl-3-oxo-1,3-dihydroisobenzofuran-5-yl)-4-methylhex-4-enoyl)oxy)-3-methyldecanoyl)oxy)propane-1,3-diyl dipalmitate]	–	–	A (greater than 10% (>10%))
CCCCCCCCCCCCCCCC(=O)OCC(COC(=O)CCCCCCCCCCCCCCC)OC(=O)CC(C)CCCCCCCCCOC(=O)CC/C(C)=C/Cc1c(O)c2c(c(C)c1OC)COC2=O (centres unmarked) [I-51, (E)-2-((12-((6-(4-hydroxy-6-methoxy-7-methyl-3-oxo-1,3-dihydroisobenzofuran-5-yl)-4-methylhex-4-enoyl)oxy)-3-methyldodecanoyl)oxy)propane-1,3-diyl dipalmitate]	–	–	A (greater than 10% (>10%))
CCCCCCCCCCCCCCCC(=O)OCC(COC(=O)CCCCCCCCCCCCCCC)OC(=O)C(C)CCCCCCCCC(C)C(=O)Oc1cc(C)cc(C)c1C(C)(C)CC(=O)Oc1c(C/C=C(\C)CCC(=O)OC)c(OC)c(C)c2c1C(=O)OC2 (centres unmarked) [I-52]	–	–	B (between 1% and 10% (1%-10%))
CCCCCCCCCCCCCCCC(=O)OCC(COC(=O)CCCCCCCCCCCCCCC)OC(=O)CC(C)CCCC(=O)Oc1c(C/C=C(\C)CCC(=O)OC)c(OC)c(C)c2c1C(=O)OC2 (centres unmarked) [I-53]	–	–	A (greater than 10% (>10%))
CCCCCCCCCCCCCCCC(=O)OCC(COC(=O)CCCCCCCCCCCCCCC)OC(=O)CC(C)CCCCCCCC(C)C(=O)Oc1ccc(COc2c(C/C=C(\C)CCC(=O)OC)c(OC)c(C)c3c2C(=O)OC3)cc1 (centres unmarked) [I-54, (E)-12-(1,3-bis(palmitoyloxy)propan-2-yl) 1-(4-(((6-methoxy-5-(6-methoxy-3-methyl-6-oxohex-2-en-1-yl)-7-methyl-3-oxo-1,3-dihydroisobenzofuran-4-yl)oxy)methyl)phenyl) 2,10-dimethyldodecanedioate]	–	–	B (between 1% and 10% (1%-10%))
CCCCCCCCCCCCCCCC(=O)OCC(COC(=O)CCCCCCCCCCCCCCC)OC(=O)CCCCCCCCCCCCCC(=O)Oc1c(C/C=C(\C)CCC(=O)OC)c(OC)c(C)c2c1C(=O)OC2 [I-57, (E)-1-(1,3-bis(palmitoyloxy)propan-2-yl) 15-(6-methoxy-5-(6-methoxy-3-methyl-6-oxohex-2-en-1-yl)-7-methyl-3-oxo-1,3-dihydroisobenzofuran-4-yl) pentadecanedioate]	–	–	A (greater than 10% (>10%))
CCCCCCCCCCCCCCCC(=O)OCC(COC(=O)CCCCCCCCCCCCCCC)OC(=O)CC(C)CCCCCCCC(C)C(=O)OC(C)Oc1c(C/C=C(\C)CCC(=O)OC)c(OC)c(C)c2c1C(=O)OC2 (centres unmarked) [I-58, (E)-12-(1,3-bis(palmitoyloxy)propan-2-yl) 1-(1-((6-methoxy-5-(6-methoxy-3-methyl-6-oxohex-2-en-1-yl)-7-methyl-3-oxo-1,3-dihydroisobenzofuran-4-yl)oxy)ethyl) 2,10-dimethyldodecanedioate]	–	–	A (greater than 10% (>10%))
CCCCCCCCCCCCCCCC(=O)OCC(COC(=O)CCCCCCCCCCCCCCC)OC(=O)C(C)CCCCCCCCCC(=O)Oc1c(C/C=C(\C)CCC(=O)OC)c(OC)c(C)c2c1C(=O)OC2 (centres unmarked) [I-60]	–	–	A (greater than 10% (>10%))
CCCCCCCCCCCCCCCC(=O)OCC(COC(=O)CCCCCCCCCCCCCCC)OC(=O)C(C)CCCCCCC(C)C(=O)Oc1c(C/C=C(\C)CCC(=O)OC)c(OC)c(C)c2c1C(=O)OC2 (centres unmarked) [I-61]	–	–	A (greater than 10% (>10%))
CCCCCCCCCCCCCCCC(=O)OCC(COC(=O)CCCCCCCCCCCCCCC)OC(=O)CC(C)CCCCCCCC(C)C(=O)OCCCC(=O)Oc1c(C/C=C(\C)CCC(=O)OC)c(OC)c(C)c2c1C(=O)OC2 (centres unmarked) [I-62, (E)-12-(1,3-bis(palmitoyloxy)propan-2-yl) 1-(4-((6-methoxy-5-(6-methoxy-3-methyl-6-oxohex-2-en-1-yl)-7-methyl-3-oxo-1,3-dihydroisobenzofuran-4-yl)oxy)-4-oxobutyl) 2,10-dimethyldodecanedioate]	–	–	A (greater than 10% (>10%))
